Each structure is given as a SMILES string. The source made the active and inactive calls. No cut-off for these calls is given here.

Series [1] relates to HCT-116. As to the kind of experiment: Cytotoxicity against human HCT116 cells assessed as cell growth inhibition after 48 hrs by sulforhodamine B assay. Format: functional, cell-based. The conditions noted are these: HCT-116, 48 h. Background: Sulforhodamine B stains cellular protein and so reports cell mass.
In series [2] the test system is HCT-116. As to the kind of experiment: Cytotoxicity against human HCT116 cells assessed as cell growth inhibition after 24 hrs by sulforhodamine B assay. It counts as functional, cell-based. The conditions noted are these: HCT-116, 24 h.
Series [3] concerns HCT-116. As to the kind of experiment: Antiproliferative activity against human HCT116 cells assessed as inhibition of colony formation at 0.91 to 3.64 uM after 14 days by crystal violet-staining based assay. Format: functional, cell-based.
Series [4] relates to HCT-116. As to the kind of experiment: Antitumor activity against human HCT116 cells xenografted in nude BALB/c mouse assessed as tumor growth inhibition at 40 mg/kg, ip administered every other day for 21 days relative to control. Format: functional. The conditions noted are these: HCT-116, ip, 504 h, read-out: TGI. In general terms: A xenograft is tissue or cells of one species grown in another, often human tumour cells in immunodeficient mice.

The subject of series [5] is HCT-116. As to the kind of experiment: Antitumor activity against human HCT116 cells xenografted in nude BALB/c mouse assessed as tumor growth inhibition at 20 mg/kg, ip administered every other day for 21 days relative to control. Format: functional. The conditions noted are these: HCT-116, ip, 504 h, read-out: TGI.
Series [6] concerns HCT-116. As to the kind of experiment: Induction of cellular senescence in human HCT116 cells assessed as up-regulation of p21 protein expression at 0.2 to 0.8 ug/ml after 48 hrs by Western blot analysis. It counts as functional, cell-based. (A western blot detects proteins with antibodies after separation by electrophoresis.)
In the next series the test system is HT-29. As to the kind of experiment: Growth inhibition human HT-29 cells after 72 hrs by MTS assay. Format: functional, cell-based.
Series [7] concerns HCT-116. As to the kind of experiment: Antiproliferative activity against human HCT116 cells xenografted in BALB/c mouse at 20 mg/kg, administered every other day for 3 weeks by Ki67-staining based assay. Format: functional, organism-based.
The nature of series [8]: Toxicity in nude BALB/c mouse xenografted with human HCT116 cells assessed as body weight loss at 20 to 40 mg/kg, administered every other day for 21 days. It counts as organism-based. The conditions noted are these: in vivo, 504 h.
Series [9] concerns Mus musculus. As to the kind of experiment: Induction of cellular senescence in BALB/c mouse xenografted with human HCT116 cells assessed as up-regulation of p21 protein expression at 20 mg/kg, administered every other day for 3 weeks by immunohistochemical analysis. Format: functional, organism-based.
Series [10] deals with Mus musculus. As to the kind of experiment: Induction of cellular senescence in BALB/c mouse xenografted with human HCT116 cells assessed as up-regulation of p16 protein expression at 20 mg/kg, administered every other day for 3 weeks by immunohistochemical analysis. Format: functional, organism-based.
The subject of series [11] is Mus musculus. As to the kind of experiment: Effect on p27 protein expression in BALB/c mouse xenografted with human HCT116 cells at 20 mg/kg, administered every other day for 3 weeks by immunohistochemical analysis. Format: functional, organism-based.
The test system of series [12] is HCT-116. As to the kind of experiment: Antitumor activity against human HCT116 cells xenografted in nude BALB/c mouse assessed as tumor growth inhibition at 25 mg/kg, ip administered every other day for 21 days relative to control. Format: functional. The conditions noted are these: HCT-116, ip, 504 h, read-out: TGI.
For series [13], the system named is HCT-116. As to the kind of experiment: Induction of apoptosis in human HCT116 cells assessed as viable cells at 11.5 uM after 48 hrs by annexin V/propidium iodide-double staining based flow cytometry (reference value: 88.3%). It counts as functional. Conditions: HCT-116, 48 h, read-out: Activity.
Series [14] has as its system HCT-116. As to the kind of experiment: Induction of apoptosis in human HCT116 cells assessed as early apoptotic cells at 11.5 uM after 48 hrs by annexin V/propidium iodide-double staining based flow cytometry (reference value: 4.8%). Format: functional.
Series [15] relates to HCT-116. As to the kind of experiment: Induction of apoptosis in human HCT116 cells assessed as late apoptotic cells at 11.5 uM after 48 hrs by annexin V/propidium iodide-double staining based flow cytometry (reference value: 4.6%). It counts as functional.
In series [16] the test system is HCT-116. As to the kind of experiment: Induction of apoptosis in human HCT116 cells assessed as necrotic cells at 11.5 uM after 48 hrs by annexin V/propidium iodide-double staining based flow cytometry (reference value: […]). It counts as functional.
In series [17] the test system is HCT-116. As to the kind of experiment: Induction of cellular senescence in human HCT116 cells at 11.5 uM after 48 hrs by SA-beta-gal-staining based assay. It counts as functional, cell-based.

As to `CC(=O)O[C@H]1C[C@]2(CC(=O)O[C@@H]2/C=C(\C)CCC=C(C)C)C(=O)C[C@H]1Nc1ccccc1`, the IC50 (in general, the midpoint of a concentration-inhibition curve) in the series with HCT-116 [1] came out at 2.5 µM; in the series on HCT-116 [2], 2.93 µM. In addition, the outcome with HCT-116 [3], in the series on HCT-116 [6], with HCT-116 [7], in the series on Mus musculus [9] and in the series on Mus musculus [10] was Active. Moreover, the inhibition in vivo at 40 mg/kg in the series with HCT-116 [4] came to 36.4%. Further, the inhibition in vivo at 20 mg/kg in the series on HCT-116 [5] came out at 36.4%. Further, in the series on HT-29, the “growth inhibition (GI)” value is “Active”. In addition, the Activity entry in [8] was “Non-Toxic”. For the same compound, in the series with Mus musculus [11], the outcome was inactive.

As to `O=c1[nH]cc(F)c(=O)[nH]1` [FLUOROURACIL], the inhibition in vivo at 25 mg/kg with HCT-116 [12] was found to be 32.5%. Further, the viability at 11.5 µM in the series on HCT-116 [13] was determined as 78.3%. Further, the Activity is given as 4.7% in the series on HCT-116 [14], 12.6% in the series on HCT-116 [15] and 4.4% in the series with HCT-116 [16]. Besides, the result in the series on HCT-116 [17] was Active.

With `CC(=O)O[C@H]1C[C@]2(CC(=O)O[C@@H]2/C=C(\C)CCC=C(C)C)C(=O)C[C@@H]1Nc1ccccc1`, the results for the concentration for half-maximal inhibition (IC50) in the series on HCT-116 [1] and in the series with HCT-116 [2] were 2.63 µM and 3.43 µM, respectively. Also, in the series with HCT-116 [4], the inhibition in vivo at 40 mg/kg was -8.6%. Also, the inhibition in vivo at 20 mg/kg in the series with HCT-116 [5] is 31.1%. Also, in [8], the Activity result is listed as “Non-Toxic”.

For the origin of these results see ChEMBL document CHEMBL4316583, “In Vitro and in Vivo Antitumor Effects of Plant-Derived Miliusanes and Their Induction of Cellular Senescence” (J Med Chem, 2019).
